The structures appear in SMILES notation. Calls of active or inactive are those of the source. How the calls were made is not given here. Where a SMILES comes first, the peptide text is derived from it. The star is where a group is joined. For = O=C*

This data set concerns CCRIS mutagenicity, Ames/micronucleus/aberration tests. The data set is described as follows: CCRIS mutagenicity studies.
Where [1] appears, read: Test System: AMES SALMONELLA TYPHIMURIUM, Strain/Indicator: TA98, Metabolic Activation: NONE, Method: STANDARD PLATE.
[2] abbreviates: Test System: AMES SALMONELLA TYPHIMURIUM, Strain/Indicator: TA98, Metabolic Activation: RAT, LIVER, S-9, AROCLOR 1254, Method: STANDARD PLATE.
[3] abbreviates: Test System: AMES SALMONELLA TYPHIMURIUM, Strain/Indicator: TA100, Metabolic Activation: NONE, Method: PREINCUBATION
[4] abbreviates: Test System: AMES SALMONELLA TYPHIMURIUM, Strain/Indicator: TA100, Metabolic Activation: NONE, Method: STANDARD PLATE.
The mark [5] stands for this setting: Test System: AMES SALMONELLA TYPHIMURIUM, Strain/Indicator: TA100, Metabolic Activation: RAT, LIVER, S-9, AROCLOR 1254, Method: STANDARD PLATE.
Setting [6] is: Test System: AMES SALMONELLA TYPHIMURIUM, Strain/Indicator: TA102, Metabolic Activation: RAT, LIVER, S-9, AROCLOR 1254, Method: PREINCUBATION
Where [7] appears, read: Test System: AMES SALMONELLA TYPHIMURIUM, Strain/Indicator: TA1535, Metabolic Activation: NONE, Method: STANDARD PLATE.
Where [8] appears, read: Test System: AMES SALMONELLA TYPHIMURIUM, Strain/Indicator: TA1535, Metabolic Activation: RAT, LIVER, S-9, AROCLOR 1254, Method: STANDARD PLATE.
[9] abbreviates: Test System: AMES SALMONELLA TYPHIMURIUM, Strain/Indicator: TA1537, Metabolic Activation: NONE, Method: STANDARD PLATE.
The mark [10] stands for this setting: Test System: AMES SALMONELLA TYPHIMURIUM, Strain/Indicator: TA1537, Metabolic Activation: RAT, LIVER, S-9, AROCLOR 1254, Method: STANDARD PLATE.
Where [11] appears, read: Test System: AMES SALMONELLA TYPHIMURIUM, Strain/Indicator: TA1538, Metabolic Activation: NONE, Method: STANDARD PLATE.

Turning to `COc1ccccc1/C=C/C=O`, the mutagenic call by setting is: (Test System: AMES SALMONELLA TYPHIMURIUM, Strain/Indicator: TA98, Metabolic Activation: HAMSTER, LIVER, S-9, AROCLOR 1254 (2.5-20%), Method: PREINCUBATION) “inactive; negative”; (Test System: AMES SALMONELLA TYPHIMURIUM, Strain/Indicator: TA98, Metabolic Activation: HAMSTER, LIVER, S-9, AROCLOR 1254, Method: STANDARD PLATE) “inactive; negative”; under setting [1], “inactive; negative”; under setting [2], “inactive; negative”; (Test System: AMES SALMONELLA TYPHIMURIUM, Strain/Indicator: TA100, Metabolic Activation: HAMSTER, LIVER, S-9, AROCLOR 1254 (2.5-20%), Method: PREINCUBATION) “inactive; negative”; (Test System: AMES SALMONELLA TYPHIMURIUM, Strain/Indicator: TA100, Metabolic Activation: HAMSTER, LIVER, S-9, AROCLOR 1254, Method: STANDARD PLATE) “inactive; negative”. The mutagenic call is, setting by setting: under setting [3], “inactive; negative”; under setting [4], “inactive; negative”; (Test System: AMES SALMONELLA TYPHIMURIUM, Strain/Indicator: TA100, Metabolic Activation: RAT, LIVER, S-9, AROCLOR 1254, Method: PREINCUBATION) “inactive; negative”; under setting [5], “inactive; negative”; (Test System: AMES SALMONELLA TYPHIMURIUM, Strain/Indicator: TA102, Metabolic Activation: HAMSTER, LIVER, S-9, AROCLOR 1254, Method: PREINCUBATION) “inactive; negative”; under setting [6], “inactive; negative”. Further, the mutagenic call reads like this: (Test System: AMES SALMONELLA TYPHIMURIUM, Strain/Indicator: TA1535, Metabolic Activation: HAMSTER, LIVER, S-9, AROCLOR 1254, Method: STANDARD PLATE) “inactive; negative”; (Test System: AMES SALMONELLA TYPHIMURIUM, Strain/Indicator: TA1535, Metabolic Activation: NONE, Method: PREINCUBATION) “inactive; negative”; under setting [7], “inactive; negative”; under setting [8], “inactive; negative”; (Test System: AMES SALMONELLA TYPHIMURIUM, Strain/Indicator: TA1537, Metabolic Activation: HAMSTER, LIVER, S-9, AROCLOR 1254, Method: STANDARD PLATE) “inactive; negative”; under setting [9], “inactive; negative”. In addition, the mutagenic call under setting [10] is “inactive; negative”; the mutagenic call (Test System: AMES SALMONELLA TYPHIMURIUM, Strain/Indicator: TA1538, Metabolic Activation: HAMSTER, LIVER, S-9, AROCLOR 1254, Method: STANDARD PLATE) is “inactive; negative”; the mutagenic call under setting [11] is “inactive; negative”; the mutagenic call (Test System: AMES SALMONELLA TYPHIMURIUM, Strain/Indicator: TA1538, Metabolic Activation: RAT, LIVER, S-9, AROCLOR 1254, Method: STANDARD PLATE) is “inactive; negative”; the mutagenic call (Test System: Mouse lymphoma, Strain/Indicator: L5178Y (tk+/tk-), Metabolic Activation: None, Method: Suspension/plate) was “active; inconclusive (previous evaluation positive)”; the mutagenic call (Test System: Mouse lymphoma, Strain/Indicator: L5178Y (tk+/tk-), Metabolic Activation: Rat, Liver, S-9, Aroclor 1254, Method: Suspension/plate) is “active; inconclusive (previous evaluation positive)”.

On to `CSCC[C@H](NC=O)C(=O)N[C@@H](Cc1ccccc1)C(=O)O` (For-Met-Phe-OH), for which the mutagenic call reads like this: under setting [1], “inactive; negative”; under setting [2], “inactive; negative”; under setting [4], “inactive; negative”; under setting [5], “inactive; negative”; under setting [7], “inactive; negative”; under setting [8], “inactive; negative”. Further, the mutagenic call was “inactive; negative” under setting [9] and “inactive; negative” under setting [10].

`CC(=O)OCC(=O)[C@@]1(OC(C)=O)CC[C@H]2[C@@H]3C[C@@H](F)C4=CC(=O)C(Br)=C[C@]4(C)[C@@]3(F)[C@@H](O)C[C@@]21C`: the mutagenic call reads like this: (Test System: AMES SALMONELLA TYPHIMURIUM, Strain/Indicator: TA98, Metabolic Activation: NONE) “inactive; negative”; (Test System: AMES SALMONELLA TYPHIMURIUM, Strain/Indicator: TA98, Metabolic Activation: S-9) “inactive; negative”; (Test System: AMES SALMONELLA TYPHIMURIUM, Strain/Indicator: TA100, Metabolic Activation: NONE) “inactive; negative”; (Test System: AMES SALMONELLA TYPHIMURIUM, Strain/Indicator: TA100, Metabolic Activation: S-9) “inactive; negative”; (Test System: AMES SALMONELLA TYPHIMURIUM, Strain/Indicator: TA1535, Metabolic Activation: NONE) “inactive; negative”; (Test System: AMES SALMONELLA TYPHIMURIUM, Strain/Indicator: TA1535, Metabolic Activation: S-9) “inactive; negative”. Also, the mutagenic call runs as follows: (Test System: AMES SALMONELLA TYPHIMURIUM, Strain/Indicator: TA1537, Metabolic Activation: NONE) “inactive; negative”; (Test System: AMES SALMONELLA TYPHIMURIUM, Strain/Indicator: TA1537, Metabolic Activation: S-9) “inactive; negative”; (Test System: AMES SALMONELLA TYPHIMURIUM, Strain/Indicator: TA1538, Metabolic Activation: NONE) “inactive; negative”; (Test System: E. COLI, Strain/Indicator: WP2, Metabolic Activation: NONE) “inactive; negative”; (Test System: E. COLI, Strain/Indicator: WP2, Metabolic Activation: S-9) “inactive; negative”; (Test System: E. COLI, Strain/Indicator: WP2 UVRA, Metabolic Activation: NONE) “inactive; negative”. Also, the mutagenic call (Test System: E. COLI, Strain/Indicator: WP2 UVRA, Metabolic Activation: S-9) is “inactive; negative”.

With `N[C@@H](CS/C=C/Cl)C(=O)O`, the mutagenic call is “inactive; negative” under setting [3] and “active; positive” (Test System: AMES SALMONELLA TYPHIMURIUM, Strain/Indicator: TA2638, Metabolic Activation: NONE, Method: PREINCUBATION).

As to `CCCCCCCCCCCCN(C)N=O`, the mutagenic call (Test System: AMES SALMONELLA TYPHIMURIUM, Strain/Indicator: TA100, Metabolic Activation: RAT, LIVER, S-9, KC500 OR PHENOBARBITAL, Method: LIQUID SUSPENSION) was “active; positive”.

For `COc1ccc(N=Nc2ccc(N(C)C)cc2)cc1`, the mutagenic call under setting [1] is “active; positive”; the mutagenic call (Test System: AMES SALMONELLA TYPHIMURIUM, Strain/Indicator: TA98, Metabolic Activation: RAT LIVER S-9, AROCLOR 1254, Method: STANDARD PLATE) was “active; positive”; the mutagenic call under setting [11] was “active; positive”; the mutagenic call (Test System: AMES SALMONELLA TYPHIMURIUM, Strain/Indicator: TA1538, Metabolic Activation: RAT LIVER S-9, AROCLOR 1254, Method: STANDARD PLATE) was “active; positive”.

Consider `CCN=C=S`, for which the mutagenic call reads like this: (Test System: AMES SALMONELLA TYPHIMURIUM, Strain/Indicator: TA97, Metabolic Activation: NONE, Method: PREINCUBATION) “inactive; negative”; (Test System: AMES SALMONELLA TYPHIMURIUM, Strain/Indicator: TA97, Metabolic Activation: RAT, LIVER, S-9, AROCLOR 1254, Method: PREINCUBATION) “inactive; negative”; (Test System: AMES SALMONELLA TYPHIMURIUM, Strain/Indicator: TA102, Metabolic Activation: NONE, Method: PREINCUBATION) “inactive; negative”; under setting [6], “inactive; negative”.

The record behind these values is PubChem BioAssay AID1259407 (Chemical Carcinogenesis Research Information System (CCRIS), 2018).
